Measured values reported in patent publication US7034208B1, “Ahas inhibiting herbicide resistant wheat and method for selection thereof” (BASF Aktiengellschaft, priority 1991, dated 2006).

What was measured:
[1] = system: AHAS (acetohydroxyacid synthase); test: AHAS Enzyme Assay I and II (M4 Plants); type: biochemical, wheat
Procedure: Enzyme Extraction: For the extraction of AHAS, 10 grams of tissue are powdered in liquid nitrogen and then homogenized in 100 mM potassium phosphate buffer (pH 7.5) containing 10 mM pyruvate, 5 mM MgCl2, 5 uM EDTA, 100 uM FAD, 1 mM valine, 1 mM leucine, 10% glycerol, and 10 mM cysteine. The homogenate is filtered through a nylon cloth (53 uM mesh) and centrifuged at 25,000 g for 20 minutes. The supernatant fraction is brought to 50% saturation with respect to (NH4)2SO4 and allowed to stand for 20-30 minutes on ice. It is then centrifuged at 25,000 g for 20 minutes and the supernatant is discarded. The ammonium sulfate pellet is dissolved in 50 mM potassium phosphate buffer (pH 7.5) containing 1 mM EDTA and 100 mM NaCl and used for the assay procedures.
AHAS Assay: AHAS activity is measured by estimation of the product, acetolactate, after conversion by decarboxylation in the presence of acid to acetoin. Standard reaction mixtures contain the enzyme in 50 mM potassium phosphate buffer (pH 7.0) containing 100 mM sodium pyruvate, 10 mM MgCl2, 1 mM thiamine pyrophosphate, and 10 uM FAD. This mixture is incubated at 37° C. for one hour after which time the reaction is stopped with the addition of […] to make a final concentration of 0.85% […] in the tube. The reaction product is allowed to decarboxylate at 60° C. for 15 minutes. The acetoin formed is determined by incubating with creatine (0.17%) and 1-napthol (1.7% in 4N NaOH) by the method of Westerfield (Westerfield, W. W., J. Biol. Chem., 161, 495-502 (1945)). Maximum color is observed by incubation at 60° C. for 15 minutes and then further incubation at room temperature for 15 minutes. The absorption of color complex is measured at 520 nm. Appropriate checks of direct acetoin formation during the enzyme assay are made. Each assay is run at least in duplicate and the experiments are repeated a minimum of two times.
Herbicide Application: Two flats are planted with approximately 100 seeds of each wheat selection (FS1, FS2, and FS4) and Fidel in sterile Metro Mix 350. Ten days later, each flat is sprayed postemergence with 62.5 g/ha of PURSUIT™. The spray delivery rate is 400 L/ha with a belt speed of 8.2 sec/rev using nozzle #65015E. Tween 20™ is used as a surfactant at 0.25% v/v. The plants are harvested three days later and assayed for AHAS activity.
Enzyme Extraction and AHAS Assay: As previously described.
Herbicide Application: As described above (Enzyme Assay I) except that the spray delivery rate is 950 l/ha with a belt speed of 12.8 sec/rev using nozzle #40015E.

[2] = system: wheat variety Fidel and resistant selections FS2 and FS4; test: Preemergence Herbicide Tolerance; type: in vivo; conditions: pre-emergence application; plant growth after four weeks; versus Fidel
[3] = system: M3 wheat plants from selections FS1-FS4 and Fidel; test: M3 Plant Screen: In vivo (seed soak/preemergence application screen)
Procedure: M3 plants from the four initial plant selections (labelled FS1, FS2, FS3 and FS4) are screened for PURSUIT™ resistance. Five M3 seeds from each mature infloresence of these initial M2 mutants are disinfested in 70% EtOH for 30 seconds followed by disinfestation in 50% solution containing 2.625% sodium hypochlorite (as described above) for 20 minutes under vacuum with gentle agitation provided by a stir plate. The seeds are rinsed two times in sterile distilled water.
Each set of five seeds is then placed into 10 ml of a 1500 uM solution of PURSUIT™ in a sterile 60×15 mm plastic petri dish and soaked for three days. The seeds are rinsed with water, dried with paper towels and planted approximately ½″ deep in 6×8 inch peat flats containing moist, sterile Metro Mix 350™. These flats are sprayed preemergence with 300 g/ha of PURSUIT™. Controls include M3 seeds from each resistant selection which are disinfested as previously described, soaked in sterile distilled water for three days and then planted. In addition, unselected susceptible Fidel wheat is disinfested as described above and one-half of the seeds treated with PURSUIT™ (seed soak and spray procedure) and the other half are soaked in water alone. The herbicide is applied with a laboratory belt sprayer at a rate of 950 L/ha with a belt speed of 12.5 sec/rev using sprayer nozzle #40015E.
Four weeks after receiving the initial seed soak, the M3 wheat plants are rated according to whether the plants are herbicide resistant, herbicide damaged or dead. The herbicide resistant plants are transplanted individually to 7.5 inch Azalea pots with Metro Mix 350™. A fertilizer, Osmocote™ (Sierra Company, Milpita, Calif.) is added as a top dressing one week after the plants are transplanted. In addition the plants are fertilized regularly with Peter's 20-20-20™ (Grace Company, Cambridge, Mass.). Individual plants are rated against Fidel untreated controls.

[4] = system: mutant wheat selections FS1-FS4 and Fidel; type: in vivo; conditions: postemergence
Description: This greenhouse test examines the level and spectrum of herbicide resistance of the mutant selections at the whole plant level. […] These lines are bulked according to their parental lines: FS1, FS2, FS3 and FS4. Fidel (wild-type) is used is a control and for performance comparison purposes. Five seeds from each of these lines (including Fidel) are planted per pot in six inch Azalea pots and are later thinned to three plants per pot. Three replicates are used per treatment (chemical and rate) for each line, and six replicates per wheat line are used as untreated controls. Plants are sprayed postemergence, 10 days after planting, with the following herbicides and rates: […]

[5] = system: AHAS (acetohydroxyacid synthase); test: AHAS enzyme assay, Initial Assay (M3 Plants); type: biochemical, wheat
Procedure: Herbicide Application: M3 plants from the four initial mutant plants (FS1, FS2, FS3 and FS4), are tested for metabolic AHAS (acetohydroxyacid synthase) activity. […] When these plants are three weeks old, two plants of each mutant selection, FS1-FS4, receive a second application of PURSUIT™ at 62.5 g/ha while two of each selection are left unsprayed. Sprayed and unsprayed susceptible Fidel plants are also included in this experiment. […] Compound 9 is 2-acetamido-2,3-dimethyl-N-(p-tolylsulfonyl)butyramide, and is described in U.S. Pat. No. 4,883,914.
Enzyme Extraction: For the extraction of AHAS, 10 grams of tissue are powdered in liquid nitrogen and then homogenized in 100 mM potassium phosphate buffer (pH 7.5) containing 10 mM pyruvate, 5 mM MgCl2, 5 uM EDTA, 100 uM FAD, 1 mM valine, 1 mM leucine, 10% glycerol, and 10 mM cysteine. The homogenate is filtered through a nylon cloth (53 uM mesh) and centrifuged at 25,000 g for 20 minutes. […]
AHAS Assay: AHAS activity is measured by estimation of the product, acetolactate, after conversion by decarboxylation in the presence of acid to acetoin. […] The acetoin formed is determined by incubating with creatine (0.17%) and 1-napthol (1.7% in 4N NaOH) by the method of Westerfield (Westerfield, W. W., J. Biol. Chem., 161, 495-502 (1945)). […] The absorption of color complex is measured at 520 nm. […]

[6] = Control 2 = Susceptible wheat seed (Fidel) soaked in herbicide solution, three weeks
[7] = FS1 M3, 1500 uM seed soak + 300 g/ha preemergence, three weeks after herbicide treatment
[8] = FS2 M3, 1500 uM seed soak + 300 g/ha preemergence, three weeks after herbicide treatment
[9] = FS3 M3, 1500 uM seed soak + 300 g/ha preemergence, three weeks after herbicide treatment
[10] = FS4 M3, 1500 uM seed soak + 300 g/ha preemergence, three weeks after herbicide treatment

CCc1cnc(C2=NC(C)(C(C)C)C(=O)N2)c(C(=O)O)c1 (stereo not shown) [PURSUIT, 5-ethyl-2-(4-isopropyl-4-methyl-5-oxo-2-imidazolin-2-yl)-nicotinic acid]
resistance of AHAS activity to inhibition ([1]; homozygous resistant mutant lines, unsprayed plants, compared to Fidel enzyme): moderate levels of resistance | resistance of AHAS activity to inhibition ([1]; selections sprayed with 62.5 g/ha PURSUIT, compared to sprayed Fidel): significantly higher level of resistance | increased tolerance of FS2 and FS4 [2]: approximately 8 fold | No. of Plants (number of plants raised/number of seeds planted) ([3]; Control 2 = Susceptible wheat seed (Fidel) soaked in herbicide solution): 13/15 | Ave. Shoot Height [3, 6]: 21.2 cm | Range Shoot Heights [3, 6]: 8-30 cm | No. of Plants (number of plants raised/number of seeds planted) ([3]; FS1 M3, 1500 uM seed soak + 300 g/ha preemergence): 48/80 | Ave. Shoot Height [3, 7]: 9.1 cm | Range Shoot Heights [3, 7]: 2-15 cm | germination frequency ([3]; FS1 M3 seed, 1500 uM seed soak + 300 g/ha preemergence): 60% | No. of Plants (number of plants raised/number of seeds planted) ([3]; FS2 M3, 1500 uM seed soak + 300 g/ha preemergence): 36/80 | Ave. Shoot Height [3, 8]: 11.7 cm | Range Shoot Heights [3, 8]: 5-18 cm | germination frequency ([3]; FS2 M3 seed, 1500 uM seed soak + 300 g/ha preemergence): 47.5% | No. of Plants (number of plants raised/number of seeds planted) ([3]; FS3 M3, 1500 uM seed soak + 300 g/ha preemergence): 35/85 | Ave. Shoot Height [3, 9]: 8.0 cm | Range Shoot Heights [3, 9]: 1-14.5 cm | germination frequency ([3]; FS3 M3 seed, 1500 uM seed soak + 300 g/ha preemergence): 41.2% | No. of Plants (number of plants raised/number of seeds planted) ([3]; FS4 M3, 1500 uM seed soak + 300 g/ha preemergence): 44/85 | Ave. Shoot Height [3, 10]: 21.1 cm | Range Shoot Heights [3, 10]: 5-28 cm | germination frequency ([3]; FS4 M3 seed, 1500 uM seed soak + 300 g/ha preemergence): 55% | survival ([3]; non-mutagenized, non-selected Fidel seed, 1500 uM seed soak and 300 g/ha preemergent): does not survive | herbicide symptoms ([3]; some M3 seedlings, progeny of FS4, 1500 uM seed soak + 300 g/ha preemergence): stunting, twisting and/or chlorotic striping | rate to which the mutant wheat is resistant ([4]; mutant wheat FS1-FS4, plant growth four weeks after treatment): more than 320 g/ha | increased tolerance of mutant wheat ([4]; mutant wheat FS1-FS4 versus Fidel, four weeks after treatment): ~8 fold | resistance of AHAS to inhibition ([5]; FS1-FS4 M3 plants sprayed with 62.5 g/ha PURSUIT, compared to sprayed wild type): dramatic increase in the AHAS resistance | resistance of AHAS to inhibition ([5]; resistant wheat lines, unsprayed M3 plants): weak resistance
